Assay results from PMC12114846, “Interleukin-15Rα-Sushi-Fc Fusion Protein Co-Hitchhikes Interleukin-15 and Pheophorbide A for Cancer Photoimmunotherapy” (Pharmaceutics, 2025).

What was measured:
rILR-Fc = biological target: T1, rILR-Fc (Homo sapiens, UniProt Q13261); assay: Microscale thermophoresis of PhA with Cy5-labeled rILR-Fc; format: binding; conditions: MST, Cy5-labeled rILR-Fc 15 nM, PBS buffer
T1 construct: the human sushi domain (amino acids 1-77) of IL-15-Rα; His tag; made in house; host or cells: Pichia pastoris GS115
Experimental: The dissociation constant (KD) between PhA and rILR-Fc was measured by the microscale thermophoresis (MST) technique, according to our previously reported method. Briefly, PhA was dissolved in dimethyl sulfoxide (DMSO) and subjected to a series of dilutions to prepare ligand solutions ranging from 0.4 μM to 0.098 nM. Cy5-labeled rILR-Fc was prepared at a concentration of 15 nM and incubated with the ligand solutions for 10 min. The resulting samples were then loaded into capillaries (NanoTemper Technologies, Munich, Germany) for MST analysis.

[1] = Plasma pharmacokinetics of PhA after i.v. injection; format: in vivo, BALB/c mice; conditions: 2.5 mg/kg of PhA, mice
Experimental: The free PhA formulation was prepared by dissolving PhA in 0.1% NaOH (w/v) via sonication to obtain a 4 mg/mL stock solution, followed by dilution with PBS to obtain the injection dose. An alkali solution can increase the solubility of pheophorbide A applied to photodynamic therapy. Blood samples were collected from the tail veins into heparin tubes at time points of 0.1, 0.5, 0.75, 1, 1.5, 2, 3, 4, and 5 h post-injection, respectively. PhA was extracted from plasma using a mixture of acetonitrile and methanol (1:1 v/v). The mixture was vortexed for 10 s, followed by centrifugation at 12,000 rpm for 10 min at 4 °C. The supernatant was transferred to a black 96-well plate, and the concentration of PhA was determined by the Hybrid Multi-Mode Microplate Reader (λex = 400 nm, λem = 656 nm).
(§1) Pharmacokinetic parameters including the elimination half-life (t1/2), the area under the concentration–time curve to the least measurable concentration (AUC0→n), the area under the moment curve (AUMC), the mean residence time (MRT), clearance (Cl), and the steady-state volume of distribution (Vss) were calculated using non-compartmental analysis.

s.c. CT26-Luc tumors = assay: Live fluorescence imaging of PhA in s.c. tumor; format: in vivo, BALB/c mice; conditions: post-injection, i.v., 2.5 mg/kg of PhA
Experimental: The tumor models were established according to our previous method. For the subcutaneous (s.c.) tumor model, 2 × 10^6 CT26-Luc cells in 50 μL PBS were implanted into the right axillary fossae of anesthetized male BALB/c mice. Orthotopic models were established through the injection of 2 × 10^6 CT26-Luc cells (20 μL PBS) into the subserosal layer of the cecum.
Live fluorescence imaging was conducted using the IVIS system (Caliper Life Sciences, USA) (λex = 675 nm, λem = 720 nm) at serial time points (18 min, 30 min, 45 min, 1 h, 1.5 h, 2 h, 3 h, 4 h, 6 h, 17 h, and 27 h) post-injection. The fluorescence intensity in the tumor region was quantified by deducting the fluorescence intensity of the mouse tumor before the administration of nanoparticles from that at each time point post-administration. […] The plasma, heart, liver, spleen, lung, kidney, lymph node, skin, and tumor were harvested for IVIS imaging (λex = 675 nm, λem = 720 nm). The tissue uptake of PhA was presented through the semi-quantitative analysis of the fluorescence intensity.

[2] = Skin photosensitivity after xenon light; format: in vivo, BALB/c mice; conditions: 2.5 mg/kg of PhA i.v., xenon light 5 mW/cm^2 for 25 min at 24 h post-injection
Experimental: To evaluate the skin photosensitivity, healthy BALB/c mice were depilated and randomly divided into three groups. […] Mice injected with PBS were used as controls. At 24 h post-injection, all mice were exposed to a long-arc xenon lamp (5 mW/cm^2, 25 min), which is generally used in solar simulation systems, emitting a high-intensity radiant flux with a visible spectrum closely approximating that of unfiltered daylight. A 1.5 cm × 1.5 cm section of skin was collected from the dorsal areas of the mice for H&E staining.

[3] = test system: orthotopic CT26-Luc tumors; assay: Antitumor effect, survival and rechallenge; conditions: PhA-containing groups + PDT; rILR-Fc/rIL-15 without laser; 2.5 mg/kg of PhA, 0.3 mg/kg of rIL-15; n = 8; PBS group 32 days
Experimental: For the laser treatment, the abdominal cavity of the mouse was opened under anesthesia; then, the tumor foci on the cecum were exposed and irradiated with a 660 nm diode laser (80 mW/cm^2) through a quartz optic fiber (0.9 mm diameter) for 10 min at 35 min post-injection. The abdominal cavity was sutured after the laser treatment. […] The tumor burden was monitored via the bioluminescence signal using an IVIS system after the i.p. injection of D-luciferin (15 mg/mL, 200 μL).
Age-matched naive male BALB/c mice were used as the controls. The tumor volume and the bioluminescence signals were recorded to assess the antitumor effects following different treatments. The death point was defined as when the tumor volume reached 2000 mm^3, calculated by the following equation:(3) Vt=L × W^2/2 where Vt is the tumor volume, L is the tumor length, and W is the tumor width.

M-07e cells = assay: Proliferation of M-07e cells (WST-1); format: cell-based; conditions: for EC50: 72 h incubation, WST-1
Experimental: The protein of rIL-15 and rILR-Fc were analyzed by sodium dodecyl sulfate–polyacrylamide gel electrophoresis (SDS-PAGE) and a Western blot. The Western blot was performed according to our previously reported method. The primary antibody used in the Western blot was the his-tag mouse monoclonal antibody (1:5000, 66005-1-Ig, Proteintech, Wuhan, China), and the secondary antibody was horseradish peroxidase (HRP)-conjugated goat anti-mouse IgG (1:5000, 33201ES60, Yeasen, Shanghai, China). The biological activity of rIL-15 and rILR-Fc/rIL-15 was determined by their ability to stimulate the proliferation of M-07e cells.
The biological activity of the nanoparticles was determined by their ability to stimulate the proliferation of M-07e cells, as described in the Supplementary Materials. […]
gene fragment (ILR-Fc), which was then ligated into the liner pPIC9k vector. […]
Matrix-assisted laser desorption/ionization time-of-flight mass spectrometry (MALDI-TOF-MS) analysis was performed to calculate the molecular mass of rILR-Fc, with sinapic acid selected as the matrix. The released oligosaccharides were analyzed by sodium dodecyl sulfate-polyacrylamide gel electrophoresis (SDS-PAGE). […]
The biological activity of recombinant proteins or nanoparticles were determined by their ability to stimulate the proliferation of M-07e cells. […]
cells (10,000 cells/well) were plated in RPMI-1640 supplemented with 10% fetal bovine serum (FBS) in a 96-well plate and incubated with proteins (rIL-15, rILR-Fc/rIL-15, rIL-15Rα-Fc/rIL-15, rIL-15-wt, rILR-Fc/rIL-15-wt and rIL-15Rα-Fc/rIL-15-wt) at the specified concentration for 72 h at 37 °C. Cell proliferation was determined using the water-soluble tetrazolium 1 (WST-1) cell counting kit (Beyotime, Shanghai, China) following the manufacturer’s instructions. Similarity, the biological activity of nanoparticles was determined by incubated with nanoparticles at the specified concentration to stimulate the proliferation of M-07e cells. […]
Aﬃnity was measured by enzyme-linked immunosorbent assay (ELISA). […]

[4] = Serum pharmacokinetics of rIL-15 after i.v. injection (ELISA); format: in vivo, C57BL/6 mice; conditions: 0.3 mg/kg of rIL-15, mice
Experimental: For the rIL-15 group, blood was collected from the tail veins at time points of 5, 10, 15, 20, 30, 45, 60, 75, and 90 min post-injection, respectively. For the other groups, blood was collected at time points of 5, 10, 20, 30, 60, 90, 120, 180, 240, 300, and 360 min post-injection, respectively. The concentrations of rIL-15 in mouse sera were quantified by ELISA, as described above regarding the characterization of the nanoparticles.
as §1

T1 sequence (Q13261 with tags, fused parts or gaps limits assumed): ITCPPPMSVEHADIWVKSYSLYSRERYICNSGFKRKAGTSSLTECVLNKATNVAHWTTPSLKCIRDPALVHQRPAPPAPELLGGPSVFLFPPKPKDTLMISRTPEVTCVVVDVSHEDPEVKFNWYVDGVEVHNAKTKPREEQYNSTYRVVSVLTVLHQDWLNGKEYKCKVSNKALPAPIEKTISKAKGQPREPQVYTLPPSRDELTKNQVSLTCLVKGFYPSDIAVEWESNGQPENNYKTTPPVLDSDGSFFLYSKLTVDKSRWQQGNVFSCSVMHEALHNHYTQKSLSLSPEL

Compound | Kd (rILR-Fc) | AUMC of PhA [1] | Cl of PhA [1] | Vss of PhA [1] | MRT ([1]; male, BALB/c, mouse, iv) | AUC ([1]; male, BALB/c, mouse, iv, read-out: AUC0→n of PhA) | half-life ([1]; male, BALB/c, mouse, iv, read-out: t1/2 of PhA (converted)) | time of peak accumulation of PhA in the tumor (s.c. CT26-Luc tumors) | skin after light exposure (H&E staining) [2] | median survival time [3] | EC50 (M-07e cells) | EC50 fold smaller than that of rIL-15-wt (M-07e cells; M-07e proliferation) | AUC0→n of rIL-15 [4] | AUMC of rIL-15 [4] | Cl of rIL-15 [4] | MRT of rIL-15 [4] | Vss of rIL-15 [4] | t1/2 of rIL-15 [4]
C=Cc1c(C)c2cc3nc(c4c5[nH]c(cc6nc(cc1[nH]2)C(C)=C6CC)c(C)c5C(=O)[C@@H]4C(=O)OC)[C@@H](CCC(=O)O)[C@@H]3C [PhA, pheophorbide A] | 200 nM | 15.97 ± 4.162 μg/mL·h^2 | 8.129 ± 1.527 (μg)/(μg/mL)/h | 18.20 ± 1.111 (μg)/(μg/mL) | 2.35 ± 0.315 h | 6490 ± 1010 ng·h/mL | 1.76 ± 0.164 h | 1.5 h | remained unchanged after light exposure | 42 days |  |  |  |  |  |  |  | 
rIL-15-wt: recombinant wild type IL-15 obtained from Sino biological (10360-H07E) |  |  |  |  |  |  |  |  |  |  | 3.26 nM |  |  |  |  |  |  | 
rIL-15: N72D-mutated human IL-15 produced in E. coli BL21 (DE3) cells |  |  |  |  |  |  |  |  |  |  | 0.92 nM | ~ 3.5 fold | 664.4 ± 196.1 ng/mL·min (×10) | 544.5 ± 73.17 ng/mL·min^2 (×10^2) | 5.766 ± 2.519 (μg)/(ng/mL)/min (×10^−4) | 9.913 ± 2.956 min | 6.351 ± 3.348 (μg)/(ng/mL) (×10^−3) | 0.3373 ± 0.0195 h
